The source of these data is patent publication US12215126B2, “Cationic steroidal antimicrobial compounds with endogenous groups” (Brigham Young University, priority 2020, dated 2025).

What all share (experiment): Antimicrobial activity, minimum inhibitory concentration (MIC)
Common to all, as to format: cell-based

The subject of one test is Candida albicans 90028. Here is the method:
(§1) The antimicrobial activity of CSA-148 was determined in comparison to CSA-44, a CSA compound known to have very high antimicrobial activity compared to other CSAs. The microbes used in the comparative test was were Candida albicans 90028, methicillin resistant Staphylococcus aureus (MRSA) BAA-41, and Pseudomonas aeruginosa (PA01 47085).
The measured MICs for C. albicans 90028 were based on 100% inhibition of growth (i.e. no cloudiness). Judging by 50% inhibition, which is more difficult but is typical for fungal MICs, the MIC for CSA-44 relative to C. albicans can be extrapolated to 4 μg/ml, and the MIC for CSA-148 relative to C. albicans can be extrapolated to 2 μg/ml.

In test [1] the test system is methicillin resistant Staphylococcus aureus (MRSA) BAA-41. The procedure: as §1
In test [2] the test system is Pseudomonas aeruginosa (PA01 47085). Here is the method: as §1

≈ marks a conversion by molar mass, not a printed value. Like-named read-outs stand apart in the source and are kept apart here.

The MIC is the smallest concentration in the dilution series that meets the test's criterion for growth inhibition. Take `CCCCCCCCOC(=O)CC[C@@H](C)[C@H]1CC[C@H]2[C@@H]3[C@H](OC(=O)CCN)C[C@@H]4C[C@H](OC(=O)CCN)CC[C@]4(C)[C@H]3C[C@H](OC(=O)CCN)[C@]12C` [CSA-44]: the minimum inhibitory concentration (MIC) is 8 µg/mL (≈ 10.9 µM) in the test with Candida albicans 90028 (C. albicans 90028, based on 100% inhibition of growth (no cloudiness)); 4 µg/mL (≈ 5.45 µM) with Candida albicans 90028 (C. albicans, judging by 50% inhibition, extrapolated); 2 µg/mL (≈ 2.72 µM) in test [1]; 2 µg/mL (≈ 2.72 µM) in test [2].

Consider `CC(C)=CCC/C(C)=C/COC(=O)CC[C@@H](C)[C@H]1CC[C@H]2[C@@H]3[C@H](OC(=O)CCN)C[C@@H]4C[C@H](OC(=O)CCN)CC[C@]4(C)[C@H]3C[C@H](OC(=O)CCN)[C@]12C` [CSA-148], for which the minimal inhibitory concentration (MIC) is 4 µg/mL (≈ 5.28 µM) in the test with Candida albicans 90028 (Candida albicans, 90028, C. albicans 90028, based on 100% inhibition of growth (no cloudiness), read-out: MIC); 2 µg/mL (≈ 2.64 µM) with Candida albicans 90028 (Candida albicans, 90028, C. albicans, judging by 50% inhibition, extrapolated, read-out: MIC); 2 µg/mL (≈ 2.64 µM) in test [1] (Staphylococcus aureus, read-out: MIC); 2 µg/mL (≈ 2.64 µM) in test [2] (Pseudomonas aeruginosa, read-out: MIC).
